Measurements published in US10899709B2, “Novel-alkynyl-substituted 3-phenylpyrrolidine-2,4-diones and use thereof as herbicides” (BAYER CROPSCIENCE AKTIENGESELLSCHAFT, priority 2015, dated 2021).

What was measured:
Assay type in all cases: in vivo
Alopecurus myosuroides [1] = experiment: Pre-emergence herbicidal effect; details: visual score after 3 weeks
Text: (§1) Seeds of monocotyledonous and dicotyledonous weed plants and crop plants are laid out in wood-fibre pots in sandy loam and covered with soil. The compounds according to the invention formulated in the form of wettable powders (WP) or as emulsion concentrates (EC) are then applied as aqueous suspension or emulsion at a water application rate of 600 to 800 l/ha (converted) with the addition of 0.2% wetting agent to the surface of the covering soil. After the treatment, the pots are placed in a greenhouse and kept under good growth conditions for the trial plants. The damage to the test plants is scored visually after a test period of 3 weeks by comparison with untreated controls (herbicidal activity in percent (%): 100% activity=the plants have died, 0% activity=like control plants).

Avena fatua [2] = experiment: Pre-emergence herbicidal effect; details: for Pre-emergence effectiveness AVEFA: visual score after 3 weeks; for Comparison data for pre-emergence effectiveness AVEFA: 20 g a.i./ha
Text: as §1

Cyperus esculentus = experiment: Pre-emergence herbicidal effect; details: for Pre-emergence effectiveness CYPES: 320 g/ha, visual score after 3 weeks; for Comparison data for pre-emergence effectiveness CYPES: 20 g a.i./ha
Text: as §1

Echinochloa crus-galli [3] = experiment: Pre-emergence herbicidal effect; details: visual score after 3 weeks
Text: as §1

Lolium multiflorum [4] = experiment: Pre-emergence herbicidal effect; details: visual score after 3 weeks
Text: as §1

Setaria viridis [5] = experiment: Pre-emergence herbicidal effect; details: for Pre-emergence effectiveness SETVI: visual score after 3 weeks; for Comparison data for pre-emergence effectiveness SETVI: 20 g a.i./ha
Text: as §1

Alopecurus myosuroides [6] = experiment: Post-emergence herbicidal effect; details: for Post-emergence effectiveness ALOMY: visual assessment after about 3 weeks
Protocol: (§2) Seeds of monocotyledonous and dicotyledonous weed and crop plants are laid out in sandy loam in wood-fibre pots, covered with soil and cultivated in a greenhouse under good growth conditions. 2 to 3 weeks after sowing, the test plants are treated at the one-leaf stage. The compounds according to the invention, formulated in the form of wettable powders (WP) or as emulsion concentrates (EC), are then sprayed as aqueous suspension or emulsion at a water application rate of 600 to 800 l/ha (converted) with the addition of 0.2% of wetting agent onto the green parts of the plants. After the test plants have been left to stand in the greenhouse under optimal growth conditions for about 3 weeks, the action of the preparations is assessed visually in comparison to untreated controls (herbicidal action in percent (%): 100% activity=the plants have died, 0% activity=like control plants).

Avena fatua [7] = experiment: Post-emergence herbicidal effect; details: for Post-emergence effectiveness AVEFA: visual assessment after about 3 weeks
Protocol: as §2

Echinochloa crus-galli [8] = experiment: Post-emergence herbicidal effect; details: visual assessment after about 3 weeks
Protocol: as §2

Lolium multiflorum [9] = experiment: Post-emergence herbicidal effect; details: visual assessment after about 3 weeks
Protocol: as §2

Setaria viridis [10] = experiment: Post-emergence herbicidal effect; details: visual assessment after about 3 weeks
Protocol: as §2

Veronica persica = experiment: Pre-emergence herbicidal effect; details: 320 g/ha, visual score after 3 weeks
Text: as §1

PHBPU = experiment: Post-emergence herbicidal effect; details: 20 g a.i./ha
Protocol: as §2

`CC#Cc1cc(C)c(C2=C(OC(=O)OCC)C3(CCC(OCCOC)CC3)NC2=O)c(CC)c1` (stereo not drawn) [Ia-14] was tested. Which “Pre-emergence effectiveness ALOMY” value (Alopecurus myosuroides [1]; 80 g/ha) did it give?
The value was 80%.

And the “Pre-emergence effectiveness ALOMY” value (Alopecurus myosuroides [1]; 320 g/ha)?
Its value is 100%.

And the “Pre-emergence effectiveness AVEFA” value (Avena fatua [2]; 80 g/ha)?
Its value is 80%.

What about the “Pre-emergence effectiveness AVEFA” value (Avena fatua [2]; 320 g/ha) of the same compound?
Its value is 80%.

What about the “Pre-emergence effectiveness CYPES” value (Cyperus esculentus) of the same compound?
The value was 100%.

And the “Pre-emergence effectiveness ECHCG” value (Echinochloa crus-galli [3]; 80 g/ha)?
The value was 100%.

And the “Pre-emergence effectiveness ECHCG” value (Echinochloa crus-galli [3]; 320 g/ha)?
Its value is 100%.

And the “Pre-emergence effectiveness LOLMU” value (Lolium multiflorum [4]; 80 g/ha)?
Its value is 90%.

What about the “Pre-emergence effectiveness LOLMU” value (Lolium multiflorum [4]; 320 g/ha) of the same compound?
The value was 100%.

What about the “Pre-emergence effectiveness SETVI” value (Setaria viridis [5]; 80 g/ha) of the same compound?
Its value is 100%.

What about the “Pre-emergence effectiveness SETVI” value (Setaria viridis [5]; 320 g/ha) of the same compound?
Its value is 100%.

Which “Comparison data for pre-emergence effectiveness AVEFA” value (Avena fatua [2]) does the source give for `CC#Cc1cc(C)c(C2=C(OC(=O)OCC)C3(CCC(COC)CC3)NC2=O)c(CC)c1` (stereo not drawn) [Ia-17] here?
The value was 60%.

What about the “Comparison data for pre-emergence effectiveness CYPES” value (Cyperus esculentus) of the same compound?
Its value is 100%.

What about the “Comparison data for pre-emergence effectiveness SETVI” value (Setaria viridis [5]) of the same compound?
The value was 100%.

`CCc1cc(C#CC2CC2)cc(C)c1C1=C(OC(=O)C(C)C)C2(CCC(COC)C2)NC1=O` (stereo not drawn) [Example Ia-12] was tested. Which “Pre-emergence effectiveness ALOMY” value (Alopecurus myosuroides [1]; 80 g/ha) did it give?
The value was 100%.

What about the “Pre-emergence effectiveness ALOMY” value (Alopecurus myosuroides [1]; 320 g/ha) of the same compound?
The value was 100%.

What about the “Pre-emergence effectiveness AVEFA” value (Avena fatua [2]; 320 g/ha) of the same compound?
The value was 90%.

What about the “Pre-emergence effectiveness ECHCG” value (Echinochloa crus-galli [3]; 80 g/ha) of the same compound?
Its value is 100%.

What about the “Pre-emergence effectiveness ECHCG” value (Echinochloa crus-galli [3]; 320 g/ha) of the same compound?
Its value is 100%.

What about the “Pre-emergence effectiveness LOLMU” value (Lolium multiflorum [4]; 80 g/ha) of the same compound?
Its value is 100%.

What about the “Pre-emergence effectiveness LOLMU” value (Lolium multiflorum [4]; 320 g/ha) of the same compound?
Its value is 100%.

What about the “Pre-emergence effectiveness SETVI” value (Setaria viridis [5]; 80 g/ha) of the same compound?
Its value is 90%.

What about the “Pre-emergence effectiveness SETVI” value (Setaria viridis [5]; 320 g/ha) of the same compound?
The value was 100%.

And the “Post-emergence effectiveness ALOMY” value (Alopecurus myosuroides [6]; 20 g/ha)?
Its value is 90%.

What about the “Post-emergence effectiveness ALOMY” value (Alopecurus myosuroides [6]; 80 g/ha) of the same compound?
The value was 90%.

What about the “Post-emergence effectiveness AVEFA” value (Avena fatua [7]; 20 g/ha) of the same compound?
The value was 100%.

What about the “Post-emergence effectiveness AVEFA” value (Avena fatua [7]; 80 g/ha) of the same compound?
The value was 100%.

And the “Post-emergence effectiveness ECHCG” value (Echinochloa crus-galli [8]; 20 g/ha)?
The value was 100%.

And the “Post-emergence effectiveness ECHCG” value (Echinochloa crus-galli [8]; 80 g/ha)?
The value was 100%.

What about the “Post-emergence effectiveness LOLMU” value (Lolium multiflorum [9]; 20 g/ha) of the same compound?
The value was 90%.

And the “Post-emergence effectiveness LOLMU” value (Lolium multiflorum [9]; 80 g/ha)?
Its value is 100%.

And the “Post-emergence effectiveness SETVI” value (Setaria viridis [10]; 20 g/ha)?
The value was 100%.

What about the “Post-emergence effectiveness SETVI” value (Setaria viridis [10]; 80 g/ha) of the same compound?
Its value is 100%.

How did the “Pre-emergence effectiveness ALOMY” value (Alopecurus myosuroides [1]; 80 g/ha) turn out when `COCC1CCC2(CC1)NC(=O)C(c1c(C)cc(C#CC3CC3)cc1C)=C2O` (stereo not drawn) [Example I-8] was run?
The value was 90%.

What about the “Pre-emergence effectiveness ALOMY” value (Alopecurus myosuroides [1]; 320 g/ha) of the same compound?
Its value is 100%.

What about the “Pre-emergence effectiveness ECHCG” value (Echinochloa crus-galli [3]; 80 g/ha) of the same compound?
Its value is 100%.

What about the “Pre-emergence effectiveness ECHCG” value (Echinochloa crus-galli [3]; 320 g/ha) of the same compound?
Its value is 100%.

What about the “Pre-emergence effectiveness LOLMU” value (Lolium multiflorum [4]; 80 g/ha) of the same compound?
The value was 90%.

And the “Pre-emergence effectiveness LOLMU” value (Lolium multiflorum [4]; 320 g/ha)?
Its value is 100%.

And the “Pre-emergence effectiveness SETVI” value (Setaria viridis [5]; 80 g/ha)?
Its value is 80%.

And the “Pre-emergence effectiveness SETVI” value (Setaria viridis [5]; 320 g/ha)?
Its value is 90%.

What about the “Pre-emergence effectiveness VERPE” value (Veronica persica) of the same compound?
The value was 90%.

And the “Post-emergence effectiveness ALOMY” value (Alopecurus myosuroides [6]; 20 g/ha)?
Its value is 90%.

And the “Post-emergence effectiveness ALOMY” value (Alopecurus myosuroides [6]; 80 g/ha)?
The value was 100%.

And the “Post-emergence effectiveness AVEFA” value (Avena fatua [7]; 80 g/ha)?
Its value is 80%.

And the “Post-emergence effectiveness ECHCG” value (Echinochloa crus-galli [8]; 20 g/ha)?
The value was 100%.

And the “Post-emergence effectiveness ECHCG” value (Echinochloa crus-galli [8]; 80 g/ha)?
The value was 100%.

What about the “Post-emergence effectiveness LOLMU” value (Lolium multiflorum [9]; 20 g/ha) of the same compound?
The value was 90%.

And the “Post-emergence effectiveness LOLMU” value (Lolium multiflorum [9]; 80 g/ha)?
The value was 90%.

What about the “Post-emergence effectiveness SETVI” value (Setaria viridis [10]; 20 g/ha) of the same compound?
Its value is 100%.

What about the “Post-emergence effectiveness SETVI” value (Setaria viridis [10]; 80 g/ha) of the same compound?
The value was 100%.

With `CC#Cc1cc(C)c(C2=C(OC(=O)OCC)C3(CCC(OC)CC3)NC2=O)c(CC)c1` (stereo not drawn) [WO 2015/040114, reference compound] as the compound, how does the “Comparison data for pre-emergence effectiveness AVEFA” value (Avena fatua [2]) read?
Its value is 50%.

And the “Comparison data for pre-emergence effectiveness CYPES” value (Cyperus esculentus)?
The value was 0%.

And the “Comparison data for pre-emergence effectiveness SETVI” value (Setaria viridis [5])?
The value was 80%.

And the “Comparison data for post-emergence effect ALOMY” value (Alopecurus myosuroides [6]; 20 g a.i./ha)?
Its value is 80%.

And the “Comparison data for post-emergence effect AVEFA” value (Avena fatua [7]; 20 g a.i./ha)?
Its value is 70%.

And the “Comparison data for post-emergence effect PHBPU” value (PHBPU)?
The value was 0%.

Which results are given for `CCc1cc(C#CC2CC2)cc(C)c1C1=C(O)C2(CCC(COC)C2)NC1=O` (stereo not drawn) [Example I-11]?
Pre-emergence effectiveness ALOMY (Alopecurus myosuroides [1]; 80 g/ha): 100%; Pre-emergence effectiveness ALOMY (Alopecurus myosuroides [1]; 320 g/ha): 100%; Pre-emergence effectiveness AVEFA (Avena fatua [2]; 320 g/ha): 80%; Pre-emergence effectiveness CYPES (Cyperus esculentus): 100%; Pre-emergence effectiveness ECHCG (Echinochloa crus-galli [3]; 80 g/ha): 100%; Pre-emergence effectiveness ECHCG (Echinochloa crus-galli [3]; 320 g/ha): 100%; Pre-emergence effectiveness LOLMU (Lolium multiflorum [4]; 80 g/ha): 100%; Pre-emergence effectiveness LOLMU (Lolium multiflorum [4]; 320 g/ha): 100%; Pre-emergence effectiveness SETVI (Setaria viridis [5]; 80 g/ha): 90%; Pre-emergence effectiveness SETVI (Setaria viridis [5]; 320 g/ha): 100%; Pre-emergence effectiveness VERPE (Veronica persica): 80%; Post-emergence effectiveness ALOMY (Alopecurus myosuroides [6]; 20 g/ha): 80%; Post-emergence effectiveness ALOMY (Alopecurus myosuroides [6]; 80 g/ha): 100%; Post-emergence effectiveness AVEFA (Avena fatua [7]; 20 g/ha): 80%; Post-emergence effectiveness AVEFA (Avena fatua [7]; 80 g/ha): 100%; Post-emergence effectiveness ECHCG (Echinochloa crus-galli [8]; 20 g/ha): 100%; Post-emergence effectiveness ECHCG (Echinochloa crus-galli [8]; 80 g/ha): 100%; Post-emergence effectiveness LOLMU (Lolium multiflorum [9]; 20 g/ha): 90%; Post-emergence effectiveness LOLMU (Lolium multiflorum [9]; 80 g/ha): 100%; Post-emergence effectiveness SETVI (Setaria viridis [10]; 20 g/ha): 100%; Post-emergence effectiveness SETVI (Setaria viridis [10]; 80 g/ha): 100%
